In patent publication US11498896B2 (The Broad Institute, Inc., priority 2014, dated 2022):

Columns and labels:
human D2R/β-arrestin [1] = target: T1, human D2R/β-arrestin (Homo sapiens (Human), UniProt P14416); experiment: cell-based; conditions: β-arrestin Antagonist, CHO-K1 cells expressing human D2R/β-arrestin; antagonist mode, quinpirole 130 nM
human D2R/β-arrestin [2] = target: T1, human D2R/β-arrestin; experiment: β-arrestin agonist assay (PathHunter); type: cell-based; conditions: CHO-K1 cells expressing human D2R/β-arrestin; agonist mode
Experimental: The detection reagent (9.6 μL, Buffer:Emerald II:Galactor-Star in a 19:5:1 ratio, i.e., 14.06 mL:3.7 mL:0.74 mL=18.5 mL) was then added to the agonist plates.

human D2R/β-arrestin [3] = target: T1, human D2R/β-arrestin; experiment: cell-based; conditions: cAMP Antagonist, CHO-K1 cells expressing human D2R/β-arrestin; antagonist mode, 2.5 μM forskolin and 2.7 nM quinpirole
Experimental: Cells were prepared for assays by growing cultures for up to 2 weeks (from about 6-20 passages). A vial of frozen cells was thawed in a water bath held at 37° C. The cells were then transferred into a 50 ml tube with 10 ml growth media. The vial was rinsed with growth media and the contents transferred to the 50 ml tube. The 50 ml tube was centrifuged at 1200 rpm for 5 minutes at room temperature. […] When the cells reached about 90% confluence (approximately 3 days between passages), the cells were passaged and used for either the agonist or antagonist assays as described below.
The cells were prepared for Gi/cAMP assays as described above. The assays were performed using a PE Lance Ultra cAMP kit (TRF0263). The cells were grown on 225 mm dishes, then washed once with 1×PBS (Cellgro) before digestion with 2.5 ml 1× Detachment reagent (DRX 92-0009) for about 2 minutes. PBS (20 ml) was then added to the plate, and the cells were transferred to a 50 ml centrifuge tube, and centrifuged at room temperature using BD Dynac III, at 1200 rpm for 5 minutes. […] The plates were then incubated at room temperature for about 30 minutes before addition of Eu-cAMP tracer solution (10 μl, PerkinElmer) and then ULight-anti-cAMP solution (10 μl) to each well.

human D2R/β-arrestin [4] = target: T1, human D2R/β-arrestin; experiment: Gi/cAMP agonist assay (Lance Ultra cAMP, forskolin); type: cell-based; conditions: CHO-K1 cells expressing human D2R/β-arrestin; agonist mode, 2.5 μM forskolin
Experimental: Eu-cAMP tracer solution (10 μl, PerkinElmer, 360 μl of Tracer in 17.64 ml kit buffer) and ULight-anti-cAMP solution (10 μl, 120 μL antibody in 17.88 ml kit buffer) was then added to each well.

T1 sequence (P14416 whole entry): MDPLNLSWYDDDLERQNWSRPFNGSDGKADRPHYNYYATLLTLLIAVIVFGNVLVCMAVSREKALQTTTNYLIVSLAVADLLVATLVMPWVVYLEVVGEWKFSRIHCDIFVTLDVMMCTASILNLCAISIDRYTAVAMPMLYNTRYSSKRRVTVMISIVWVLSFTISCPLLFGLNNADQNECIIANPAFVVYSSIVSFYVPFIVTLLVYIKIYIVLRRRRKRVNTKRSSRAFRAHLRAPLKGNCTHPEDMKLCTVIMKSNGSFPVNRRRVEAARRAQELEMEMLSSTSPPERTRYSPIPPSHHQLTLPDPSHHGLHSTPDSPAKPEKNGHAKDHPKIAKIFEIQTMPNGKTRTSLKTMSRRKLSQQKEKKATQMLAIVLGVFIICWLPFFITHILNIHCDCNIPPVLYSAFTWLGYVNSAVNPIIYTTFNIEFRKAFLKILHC

SMILES | IC50 (human D2R/β-arrestin [1]) | EC50 (human D2R/β-arrestin [2]) | IC50 (human D2R/β-arrestin [3]) | EC50 (human D2R/β-arrestin [4])
CC1(Oc2cccc(C(F)(F)F)c2)CCCN(CCOc2cc(F)ccc2F)C1 (stereo not shown) [Example 62, 1-(2-(2,5-Difluorophenoxy)ethyl)-3-methyl-3-(3-(trifluoromethyl)phenoxy)piperidine] | 1 to 10 µM | > 30 µM | 1 to 10 µM | > 30 µM
CC1(Oc2ccc(Cl)cc2)CCN(CCOc2ccc(C(F)(F)F)c(O)c2)CC1 [Compound 184, 5-(2-(4-(4-chlorophenoxy)-4-methylpiperidin-1-yl)ethoxy)-2-(trifluoromethyl)phenol] | 10 to 30 µM | > 30 µM | > 30 µM | 1 to 10 µM
CC1(C(=O)NC2CC2)CCN(CC2COc3ccccc3O2)CC1 (stereo not shown) [Compound 203, N-cyclopropyl-1-((2,3-dihydrobenzo[b][1,4]dioxin-2-yl)methyl)-4-methylpiperidine-4-carboxamide] | 0.1 to 1 µM | > 30 µM | 1 to 10 µM | < 0.1 µM
CC1(Oc2ccccc2)CCN(CCOc2ccncc2)CC1 [Compound 173, 4-(2-(4-methyl-4-phenoxypiperidin-1-yl)ethoxy)pyridine] | > 30 µM | 1 to 10 µM | > 30 µM | 0.1 to 1 µM
COc1ccc(OCCN2CCC(C)(Oc3ccc(Cl)cc3)C2)cc1 (stereo not shown) [Compound 20, 3-(4-chlorophenoxy)-1-(2-(4-methoxyphenoxy)ethyl)-3-methyl pyrrolidine] | 10 to 30 µM | > 30 µM | > 30 µM | < 0.1 µM
CC1(Oc2ccc(Cl)cc2)CCN(CCOc2ccccc2Cl)CC1 [Example 88, 4-(4-chlorophenoxy)-1-(2-(2-chlorophenoxy)ethyl)-4-methylpiperidine] | < 0.1 µM | < 0.1 µM | > 30 µM | < 0.1 µM
CC1(Oc2ccc(Cl)cc2)CCN(CCOc2ccc(C(F)(F)F)nc2)CC1 [Compound 147, 5-(2-(4-(4-chlorophenoxy)-4-methylpiperidin-1-yl)ethoxy)-2-(trifluoromethyl)pyridine] | > 30 µM | < 0.1 µM | > 30 µM | < 0.1 µM

Now from value to molecule:

IC50 (human D2R/β-arrestin [1]) | EC50 (human D2R/β-arrestin [2]) | IC50 (human D2R/β-arrestin [3]) | EC50 (human D2R/β-arrestin [4]) | SMILES
1 to 10 µM | > 30 µM | 0.1 to 1 µM | > 30 µM | CC1(Oc2cccc(C(F)(F)F)c2)CCN(CCOc2ccccc2Cl)C1 (stereo not shown) [Example 65, 1-(2-(2-Chlorophenoxy)ethyl)-3-methyl-3-(3-(trifluoromethyl)phenoxy) pyrrolidine]
0.1 to 1 µM | > 30 µM | 0.1 to 1 µM | > 30 µM | CC1(C(=O)Nc2ccccc2)CCN(CCOc2ccccc2C(F)(F)F)CC1 [Compound 219, 4-methyl-N-phenyl-1-(2-(2-(trifluoromethyl)phenoxy)ethyl)piperidine-4-carboxamide]
> 30 µM | > 30 µM | > 30 µM | > 30 µM | CC(=O)N(CCN1CCC(C)(Oc2ccc(Cl)cc2)CC1)c1ccccc1C(F)(F)F [Compound 170, N-(2-(4-(4-chlorophenoxy)-4-methylpiperidin-1-yl)ethyl)-N-(2-(trifluoromethyl)phenyl)acetamide]
0.1 to 1 µM | > 30 µM | > 30 µM | < 0.1 µM | CC1(Oc2ccccc2)CCN(CCOc2cccc(C(F)(F)F)c2)CC1 [Example 67, 4-methyl-4-phenoxy-1-(2-(3-(trifluoromethyl)phenoxy)ethyl)piperidine]
1 to 10 µM | > 30 µM | > 30 µM | 1 to 10 µM | COc1ccccc1OC1(C)CCN(CCOc2ccccc2)C1 (stereo not shown) [Example 84, 3-(2-Methoxyphenoxy)-3-methyl-1-(2-phenoxyethyl)pyrrolidine]
0.1 to 1 µM | > 30 µM | 0.1 to 1 µM | 1 to 10 µM | CC1(Oc2ccccc2)CCN(CCOc2ccccc2S(C)(=O)=O)CC1 [Compound 141, 4-methyl-1-(2-(2-(methylsulfonyl)phenoxy)ethyl)-4-phenoxypiperidine]
